Test results taken from patent publication US6509344B1, “Indenoisoquinolines as antineoplastic agents” (The United States of America as represented by the …, priority 1998, dated 2003).
pIC50: −log10 of the molar value. “Also recorded” adds a separate entry of the source. Read-outs that look alike come from different tables or passages of the source. One block for each compound: values may come before it.

Columns and labels:
[1] = molecular target: T1, topoisomerase I cleavage complexes (Homo sapiens, UniProt P11387); assay: Salt reversal of topoisomerase I cleavage complexes; type: biochemical; conditions: increasing salt concentration
T1 sequence (P11387 1-765): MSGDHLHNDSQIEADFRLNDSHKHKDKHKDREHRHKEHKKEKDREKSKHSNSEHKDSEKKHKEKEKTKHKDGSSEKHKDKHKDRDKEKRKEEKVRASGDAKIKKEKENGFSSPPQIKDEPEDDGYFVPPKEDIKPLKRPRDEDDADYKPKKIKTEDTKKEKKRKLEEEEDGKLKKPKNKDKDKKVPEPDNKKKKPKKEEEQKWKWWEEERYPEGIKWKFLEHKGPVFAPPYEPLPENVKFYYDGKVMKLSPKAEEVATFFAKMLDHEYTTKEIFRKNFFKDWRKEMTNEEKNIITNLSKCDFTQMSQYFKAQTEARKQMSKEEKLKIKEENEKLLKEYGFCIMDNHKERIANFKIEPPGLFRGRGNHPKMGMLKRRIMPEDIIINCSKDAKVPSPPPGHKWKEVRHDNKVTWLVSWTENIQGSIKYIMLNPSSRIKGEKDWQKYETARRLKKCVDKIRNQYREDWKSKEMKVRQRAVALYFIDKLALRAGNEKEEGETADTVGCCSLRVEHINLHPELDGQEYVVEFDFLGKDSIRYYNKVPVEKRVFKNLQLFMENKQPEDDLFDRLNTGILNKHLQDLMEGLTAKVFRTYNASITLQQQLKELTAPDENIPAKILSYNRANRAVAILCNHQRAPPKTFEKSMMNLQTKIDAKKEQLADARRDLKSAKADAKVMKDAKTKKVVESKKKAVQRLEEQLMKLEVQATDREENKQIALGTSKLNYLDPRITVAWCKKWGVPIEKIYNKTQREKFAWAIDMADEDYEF

[2] = system: UACC-62; assay: NCI human cancer cell line screen (COMPARE screening), Melanoma UACC-62; type: cell-based; conditions: for IC50: UACC-62, concentration causing 50% growth inhibition, read-out: Cytotoxicity (G150 in μM) Melanoma UACC-62
Description: (§1) Considering the diversity of cancer in terms of cell type, morphology, growth rate and other cellular characteristics, the U.S. National Cancer Institute (NCI) has developed a “disease-oriented” approach to anticancer activity screening (M. R. Boyd, in “Principle of Practice of Oncology” […]. Rosenberg (Eds.) Vol. 3, PPO Update, No. 10, 1989). This in vitro prescreening system is based on the measurement of anticancer cytotoxicity against human cancer cell line panels consisting of approximately 60 cell lines of major human cancers (including leukemia and slower growing tumor cells such as lung, colon, breast, skin, kidney, etc.) and is referred hereinafter as “COMPARE” screening. An important advantage of the new in vitro screening panels is the opportunity to facilitate identification of compounds that are selectively more cytotoxic to cells of certain types of cancers, thus increasing the ability to select compounds for further study with respect to specific diseases. The indenoisoquinolines were examined for antiproliferative activity against the human cancer cell lines in the National Cancer Institute screen (COMPARE screening), in which the activity of each compound was evaluated with approximately […] different cancer cell lines of diverse tumor origins.

[3] = system: HCT-116; assay: NCI human cancer cell line screen (COMPARE screening), Colon HCT-116; type: cell-based; conditions: for IC50: HCT-116, concentration causing 50% growth inhibition, read-out: Cytotoxicity (G150 in μM) Colon HCT-116
Description: as §1

[4] = system: supercoiled SV40 DNA; assay: SV40 DNA unwinding assay; type: biochemical
Description: With some of the compounds (e.g. 27), the activity seemed to increase initially as the concentration was increased, but then it declined at higher concentrations. […] The unwinding assay using supercoiled DNA in the presence of topoisomerase I is a simple procedure to detect DNA intercalation.
After electrophoresis, DNA bands were stained in 10 μg/mL of ethidium bromide and visualized by transillumination with UV light (300 nm).

[5] = system: human topoisomerase II; assay: Topoisomerase II-mediated DNA cleavage assay (5'-end-labeled human c-myc DNA); type: biochemical
[6] = molecular target: T2, topoisomerase I (Homo sapiens, UniProt P11387); assay: Topoisomerase I-mediated DNA cleavage assay (3'-end-labeled 161 bp pBluescript SK(-) fragment); type: biochemical; conditions: for Top 1 Cleavage: relative to the activity of 1 μM camptothecin
T2 sequence (P11387 1-765): T1 sequence (P11387 1-765)
Description: Topoisomerase I-Mediated DNA Cleavage Reactions Using 3′-End-labeled 161 BP Plasmid DNA
The 161 bp fragment from pBluescript SK(−) phagemid DNA (Stratagene, La Jolla, Calif.) was cleaved with the restriction endonuclease Pvu II and Hind III (New England Biolabs, Beverly, Mass.) in supplied NE buffer 2 (10 μL reactions) for 1 h at 37° C., separated by electrophoresis in a 1% agarose gel made in 1×TBE buffer. The 161 bp fragment was eluted from the gel slice (centrilutor by Amicon) and concentrated in a centricon 50 centrifugal concentrator (Amicon, Beverly, Mass.). Approximately 200 ng of the fragment was 3′-end-labeled at the Hind III site by fill-in reaction with [alpha-^32P]-dCTP and 0.5 mM dATP, dGTP, and dTTP, in React 2 buffer (50 mM Tris-HCl, pH 8.0, […], 50 mM NaCl) with 0.5 units of DNA polymerase I (Klenow fragment). Labeling reactions were followed by phenol-chloroform extraction and ethanol precipitation. The resulting 161 bp 3′-endlabeled DNA fragment was resuspended in water. Aliquots (approximately 50,000 dpm/reaction) were incubated with topoisomerase I at 30° C. for 15 min in the presence of the indicated drug. Reactions were terminated by adding 0.5% SDS. After ethanol precipitation, the samples were resuspended in loading buffer (80% formamide, 10 mM sodium hydroxide, 1 mM sodium EDTA, 0.1% xylene cyanol, and 0.1% bromophenol blue, pH 8.0), and separated in a denaturing gel (16% polyacrylamide, 7 M urea) run at 51° C. The gel was dried and visualized by using a Phosphoimager and ImageQuant software (Molecular Dynamics, Sunnyvale, Calif.).

[7] = system: HOP-62; assay: NCI human cancer cell line screen (COMPARE screening), Lung HOP-62; type: cell-based; conditions: for IC50: HOP-62, concentration causing 50% growth inhibition, read-out: Cytotoxicity (G150 in μM) Lung HOP-62
Description: as §1

[8] = system: MDA-MB-435; assay: NCI human cancer cell line screen (COMPARE screening), Breast MDA-MB-435; type: cell-based; conditions: for IC50: MDA-MB-435, concentration causing 50% growth inhibition, read-out: Cytotoxicity (G150 in μM) Breast MDA-MB-435
Description: as §1

[9] = system: DU-145; assay: NCI human cancer cell line screen (COMPARE screening), Prostate DU-145; type: cell-based; conditions: for IC50: DU-145, concentration causing 50% growth inhibition, read-out: Cytotoxicity (G150 in μM) Prostate DU-145
Description: as §1

[10] = system: approximately 55 different cancer cell lines of diverse tumor origins; assay: NCI screen mean graph midpoint over all cell lines tested; type: cell-based, human; conditions: for pIC50: average GI50 for all cell lines tested (approximately 55), values outside test range taken as 10^-8 or 10^-4 molar, read-out: MGM (mean graph midpoint)
Description: as §1

[11] = system: OVCAR-3; assay: NCI human cancer cell line screen (COMPARE screening), Ovarian OVCAR-3; type: cell-based; conditions: for IC50: Homo sapiens, OVCAR-3, concentration causing 50% growth inhibition, read-out: Cytotoxicity (G150 in μM) Ovarian OVCAR-3
Description: as §1

[12] = system: SN12C; assay: NCI human cancer cell line screen (COMPARE screening), Renal SN12C; type: cell-based; conditions: for IC50: SN12C, concentration causing 50% growth inhibition, read-out: Cytotoxicity (G150 in μM) Renal SN12C
Description: as §1

[13] = system: SF-539; assay: NCI human cancer cell line screen (COMPARE screening), CNS SF-539; type: cell-based; conditions: for IC50: SF-539, concentration causing 50% growth inhibition, read-out: Cytotoxicity (G150 in μM) CNS SF-539
Description: as §1

- melting point: 288 to 290 °C
Compound: COC1=CC2=C(CN1OC)C1=C(c3cc4c(cc3C1=O)OCO4)C(CCCC(C)O)C2=O (centres unmarked) [Compound 19b, 5,6-Dihydro-6-(4-hydroxypent-1-yl)-5,11-diketo-2,3-dimethoxy-8,9-methylenedioxy-11H-indenoisoquinoline]

- pIC50 [2]: 6.38
- pIC50 [3]: 5.70
- induction of topoisomerase II cleavage complexes [5]: no effect
- activity in the topoisomerase I cleavage assay (in words) [6]: weak
- pIC50 [7]: 5.03
- pIC50 [8]: 4.77
- pIC50 [9]: 5.39
- pIC50 [13]: 5.51
- pIC50 [11]: 5.17
- pIC50 [12]: 5.68
Compound: COc1cc2c(cc1OC)[C@H]1C(=O)c3cc4c(cc3[C@H]1N(C)C2=O)OCO4 (relative stereo) [Compound 20, cis-5,6,12,13-Tetrahydro-2,3-dimethoxy-6-methyl-5,11-dioxo-8,9(methylenedioxy)-(11H)indeno[1,2-c]isoquinoline]
- Top 1 Cleavage [6]: ± (those compounds having less than 20% of the activity of 1 μM camptothecin)
- cytotoxicity (MGM) relative to lead compound 1 [10]: lower MGM than the lead compound 1
- pIC50 [10]: 5.30

- pIC50 [3]: 5.64
- induction of topoisomerase II cleavage complexes [5]: no effect
- activity in the topoisomerase I cleavage assay (in words) [6]: rival the topoisomerase activity of 1
- pIC50 [7]: 5.47
- pIC50 [8]: 5.28
- reversal of induced cleavage sites by salt treatment [1]: reversed by salt treatment
- pIC50 [9]: 5.49
- pIC50 [13]: 5.66
- pIC50 [11]: 5.18
- pIC50 [12]: 5.59
Compound: C=CCn1c2c(c3cc(OC)c(OC)cc3c1=O)C(=O)c1cc3c(cc1-2)OCO3 [Compound 13c, 6-Allyl-2,3-dimethoxy-5,6-dihydro-5,11-oxo-8,9-(methylenedioxy)-11H-indeno[1,2-c]isoquinoline]
- Top 1 Cleavage [6]: + (those compounds having between 20% and 50% of the activity of 1 μM camptothecin)
- pIC50 [10]: 5.38

- induction of topoisomerase II cleavage complexes [5]: no effect
- reversal of induced cleavage sites by salt treatment [1]: reversed by salt treatment
Compound: COc1cc2c3c(n(C)c(=O)c2cc1OC)-c1cc2c(cc1C3=O)OCO2 [Compound 1, reference compound]
- IC50 [2]: 4.2 µM
- IC50 [3]: 35 µM
- DNA unwinding ([4]; supercoiled DNA in the presence of topoisomerase I): did not produce detectable DNA unwinding; also recorded: does not appear to unwind DNA
- activity in the topoisomerase I cleavage assay (in words) [6]: induce DNA cleavage in the presence of topoisomerase I; also recorded: good activity
- Top 1 Cleavage [6]: ++ (those compounds having greater than 50% of the activity of 1 μM camptothecin)
- IC50 [7]: 1.3 µM
- IC50 [8]: 96 µM
- IC50 [9]: 37 µM
- pIC50 [10]: 4.70
- IC50 [13]: 41 µM
- IC50 [12]: 68 µM

The next lines start with the compound.

Compound: CC[C@@]1(O)C(=O)OCc2c1cc1n(c2=O)Cc2cc3ccccc3nc2-1 [Compound 34, camptothecin, reference compound]
- reversal of induced cleavage sites by salt treatment [1]: reversed by salt treatment

Compound: O=C(O)CCCn1c2c(c3ccccc3c1=O)C(=O)c1ccccc1-2 [Compound 26, 6-(3-Carboxy-1-propyl)-5,6-dihydro-5,11-diketo-11H-indeno[1,2-c]isoquinoline]
- IC50 ([2]; Homo sapiens): 73 µM
- IC50 ([3]; Homo sapiens): 40 µM
- DNA unwinding at higher concentrations ([4]; at higher concentrations): does unwind DNA
- induction of topoisomerase II cleavage complexes [5]: induced topoisomerase II cleavage complexes
- activity in the topoisomerase I cleavage assay (in words) [6]: most potent; also recorded: rival the topoisomerase activity of 1
- Top 1 Cleavage [6]: ++ (those compounds having greater than 50% of the activity of 1 μM camptothecin)
- IC50 ([7]; Homo sapiens): 87 µM
- IC50 ([8]; Homo sapiens): > 100 µM
- reversal of induced cleavage sites by salt treatment [1]: reversed by salt treatment
- IC50 ([9]; Homo sapiens): 48 µM
- pIC50 ([10]; Homo sapiens): 4.32
- IC50 [11]: > 100 µM
- IC50 ([12]; Homo sapiens): 27 µM

Compound: O=C1c2ccccc2-c2c1c1ccccc1c(=O)n2CCCCO [Compound 7, 5,6-Dihydro-6-(4-hydroxy-1-butyl)-5,11-diketo-11H-indeno[1,2-c]isoquinoline]
- IC50 ([2]; Homo sapiens): 4.4 µM
- IC50 ([3]; Homo sapiens): 3.2 µM
- induction of topoisomerase II cleavage complexes [5]: weak topoisomerase II activity
- Top 1 Cleavage [6]: + (those compounds having between 20% and 50% of the activity of 1 μM camptothecin)
- IC50 ([7]; Homo sapiens): 13 µM
- IC50 ([8]; Homo sapiens): > 100 µM
- IC50 ([9]; Homo sapiens): > 100 µM
- pIC50 ([10]; Homo sapiens): 4.80
- cytotoxicity (MGM) relative to lead compound 1 ([10]; comparison in words): lower MGM than the lead compound 1
- IC50 ([13]; Homo sapiens): 4.6 µM
- IC50 [11]: 74 µM
- IC50 ([12]; Homo sapiens): 7.4 µM
